# Publication PMC4666006 (European journal of cancer (Oxford, England : 1990), 2013)
# Experiments:
# patients with RCC = details: cited from earlier work
# [1] = test system: patients with advanced renal cell cancer; details: ongoing randomised phase III trial; cited from earlier work
# [2] = test system: patients with advanced RCC; assay: Treatment-emergent adverse events; type: in vivo; details: all 27 patients
# [3] = Pharmacokinetic assessments; type: in vivo, patients; details: for AUC(0-t) / Cmax / Tmax: human, serum
# [4] = test system: patients with advanced RCC; details: phase III; cited from earlier work
# [5] = test system: patients with advanced RCC; assay: 3 + 3 dose-escalation: dose-limiting toxicities and recommended phase II dose; type: in vivo
# [6] = cited from earlier work
# [7] = test system: patients with advanced RCC; details: cited from earlier work
compound,measurement,setting,value
Cc1ccc(Nc2nccc(N(C)c3ccc4c(C)n(C)nc4c3)n2)cc1S(N)(=O)=O [pazopanib],"Grade 3 hypertension, patients",patients with RCC,4%
same,"Grade 4 hypertension, patients",patients with RCC,0%
same,Incidence of hypertension,patients with RCC,40%
CCN(CC)CCNC(=O)c1c(C)[nH]c(/C=C2\C(=O)Nc3ccc(F)cc32)c1C [sunitinib],"Grade 3 hypertension, patients",patients with RCC,8%
same,"Grade 4 hypertension, patients",patients with RCC,0%
same,Incidence of hypertension,patients with RCC,24%
CNC(=O)c1cc(Oc2ccc(NC(=O)Nc3ccc(Cl)c(C(F)(F)F)c3)cc2)ccn1 [sorafenib],"Grade 3/4 hypertension, patients",patients with RCC,4–11%
same,Incidence of hypertension,patients with RCC,17–29%
same,progression-free survival,[1],9.1 months
CO[C@H]1C[C@@H]2CC[C@@H](C)[C@@](O)(O2)C(=O)C(=O)N2CCCC[C@H]2C(=O)O[C@H]([C@H](C)C[C@@H]2CC[C@@H](OC(=O)C(C)(CO)CO)[C@H](OC)C2)CC(=O)[C@H](C)/C=C(\C)[C@@H](O)[C@@H](OC)C(=O)[C@H](C)C[C@H](C)/C=C/C=C/C=C/1C [temsirolimus],Patients with ≥1 dose reduction/interruption of the drug,[2],63%
same,AUC(0-t),"[3]; intravenous, 15 mg/week",3190 ng·h/mL
same,Cmax,"[3]; intravenous, 15 mg/week",164 ng/mL
same,Tmax,"[3]; intravenous, 15 mg/week",2.32 h
same,AUC(0-t),"[3]; intravenous, 25 mg/week",4240 ng·h/mL
same,Cmax,"[3]; intravenous, 25 mg/week",200 ng/mL
same,Tmax,"[3]; intravenous, 25 mg/week",1.81 h
same,"Fatigue, temsirolimus-related TEAE",[4],51%
same,"Recommended phase II dose (RP2D), temsirolimus","[5]; intravenously, in combination with tivozanib",25 mg/week
COc1cc2nccc(Oc3ccc(NC(=O)Nc4cc(C)on4)c(Cl)c3)c2cc1OC [tivozanib],Patients with ≥1 dose reduction/interruption of the drug,[2],59%
same,progression-free survival,[1],11.9 months
same,Tmax,"[3]; oral, […]",17.3 h
same,half-life,[6],~ 4.5 d
same,"Hypertension, treatment-related event, patients","[7]; phase II, advanced RCC",45%
same,"Fatigue, treatment-related event, patients","[7]; tivozanib monotherapy, phase II, advanced RCC",8%
same,"Grade 3 hypertension, patients",[7]; tivozanib phase II trial,11%
same,"Grade 4 hypertension, patients",[7]; tivozanib phase II trial,1%
same,"Recommended phase II dose (RP2D), tivozanib","[5]; orally, 3 weeks on/1 week off, in combination with temsirolimus",1.5 mg/day
"CO[C@H]1C[C@@H]2CC[C@@H](C)[C@@](O)(O2)C(=O)C(=O)N2CCCC[C@H]2C(=O)O[C@H]([C@H](C)C[C@@H]2CC[C@@H](O)[C@H](OC)C2)CC(=O)[C@H](C)/C=C(\C)[C@@H](O)[C@@H](OC)C(=O)[C@H](C)C[C@H](C)/C=C/C=C/C=C/1C [Sirolimus, sirolimus]","Ratio of sirolimus AUC0–last /temsirolimus AUC0–last, mean (SD)","[3]; day 22, Temsirolimus 15 mg/week",1.26 (0.67)
same,"Ratio of sirolimus AUC0–last /temsirolimus AUC0–last, mean (SD)","[3]; day 22, Temsirolimus 25 mg/week",1.48 (0.66)
same,AUC(0-t),"[3]; intravenous, 15 mg/week",3560 ng·h/mL
same,Cmax,"[3]; intravenous, 15 mg/week",51.3 ng/mL
same,Tmax,"[3]; intravenous, 15 mg/week",3.18 h
same,AUC(0-t),"[3]; intravenous, 25 mg/week",6570 ng·h/mL
same,Cmax,"[3]; intravenous, 25 mg/week",93.8 ng/mL
same,Tmax,"[3]; intravenous, 25 mg/week",1.81 h
CNC(=O)c1ccccc1Sc1ccc2c(/C=C/c3ccccn3)n[nH]c2c1 [axitinib],"Grade 3/4 hypertension, patients",patients with RCC,16%
same,Incidence of hypertension,patients with RCC,40%
